{"source": "patent US11452725B2", "about": "“Chiral diaryl macrocycles and uses thereof” (TURNING POINT THERAPEUTICS, INC., priority 2015, dated 2022)", "key": {"YES": {"target": "T1, YES (Homo sapiens, UniProt P07947)", "T1 construct": "purchased Reaction Biology Corporation", "assay": "Biochemical kinase assay (Reaction Biology)", "conditions": "10 μM ATP"}, "TXK": {"target": "T2, TXK (Homo sapiens, UniProt P42681)", "T2 construct": "purchased Reaction Biology Corporation", "assay": "Biochemical kinase assay (Reaction Biology)", "conditions": "10 μM ATP"}, "LTK": {"target": "T3, LTK (Homo sapiens, UniProt P29376)", "T3 construct": "purchased Reaction Biology Corporation (contract assay)", "T3 sequence (P29376 17-864)": "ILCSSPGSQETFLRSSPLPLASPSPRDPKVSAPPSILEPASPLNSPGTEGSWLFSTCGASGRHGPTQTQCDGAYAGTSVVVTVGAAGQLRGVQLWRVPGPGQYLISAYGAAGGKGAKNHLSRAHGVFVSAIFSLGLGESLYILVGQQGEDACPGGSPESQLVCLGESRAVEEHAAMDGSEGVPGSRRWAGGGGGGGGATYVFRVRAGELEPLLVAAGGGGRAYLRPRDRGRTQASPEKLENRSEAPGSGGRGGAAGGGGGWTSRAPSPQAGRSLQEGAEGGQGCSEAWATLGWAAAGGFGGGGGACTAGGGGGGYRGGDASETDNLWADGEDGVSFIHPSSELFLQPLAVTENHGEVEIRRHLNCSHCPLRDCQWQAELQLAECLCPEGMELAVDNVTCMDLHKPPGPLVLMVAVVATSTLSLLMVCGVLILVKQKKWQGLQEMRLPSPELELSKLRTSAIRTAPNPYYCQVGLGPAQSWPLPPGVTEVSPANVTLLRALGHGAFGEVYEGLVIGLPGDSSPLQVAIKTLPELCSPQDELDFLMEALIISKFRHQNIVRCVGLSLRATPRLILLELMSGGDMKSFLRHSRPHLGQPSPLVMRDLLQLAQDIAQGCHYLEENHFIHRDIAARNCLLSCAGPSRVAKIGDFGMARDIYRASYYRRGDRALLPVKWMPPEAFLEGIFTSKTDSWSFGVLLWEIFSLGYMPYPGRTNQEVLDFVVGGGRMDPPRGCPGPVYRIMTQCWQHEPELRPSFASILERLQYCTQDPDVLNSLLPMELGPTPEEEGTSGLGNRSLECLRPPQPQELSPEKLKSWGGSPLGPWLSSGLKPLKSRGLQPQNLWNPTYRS", "assay": "Biochemical kinase assay (Reaction Biology)", "conditions": "10 μM ATP"}, "TNK2": {"target": "T4, TNK2 (Homo sapiens, UniProt Q07912)", "T4 construct": "purchased Reaction Biology Corporation (contract assay)", "assay": "Biochemical kinase assay (Reaction Biology)", "conditions": "10 μM ATP"}, "NCI-H2228 cell line": {"system": "NCI-H2228 cell line", "assay": "Cell proliferation assay (CellTiter-Glo)", "format": "cell-based", "conditions": "Homo sapiens, 72 hours, EML4-ALK fusion gene"}, "PLK4": {"target": "T5, PLK4 (Homo sapiens, UniProt O00444)", "T5 construct": "purchased Reaction Biology Corporation (contract assay)", "assay": "Biochemical kinase assay (Reaction Biology)", "conditions": "10 μM ATP"}, "[1]": {"system": "NIH3T3 SDC4-ROS1 WT tumors", "assay": "NIH3T3 SDC4-ROS1 WT subcutaneous xenograft model", "format": "in vivo, athymic nude mice", "conditions": "26 days", "protocol": "Female athymic nude mice and SCID/Beige mice (5-8 weeks of age) were obtained from Charles River Laboratory and were housed in Innovive IVC disposable cages on HEPA filtered ventilated racks with ad libitum access to rodent chow and water. Five million cells in 100 μL, serum-free medium were implanted subcutaneously in the right flank region of the mouse. Karpas299 cells were implanted into the SCID/Beige mice. KM12 cells, NIH3T3 EML4-ALK wild type mutant cells, and NIH3T3 SCD4-ROS1 wild type mutant cells were implanted into the athymic nude mice, respectively. All models except KM12 were implanted with 50% matrigel (Corning, Inc) in the medium. Tumor size and body weight were measured on designated days. Tumor size was measured with an electronic caliper and tumor volume was calculated as the product of length*width^2*0.5.\nThe SDC4-ROS1 fusion gene is considered as the driver for tumor progression in NSCLC. […] The control group of mice were given vehicle only. Tumor volume was measured by caliper on the indicated days and is shown at mean±sem in FIG. 9."}, "GRK7": {"target": "T6, GRK7 (Homo sapiens, UniProt Q8WTQ7)", "T6 construct": "purchased Reaction Biology Corporation (contract assay)", "assay": "Biochemical kinase assay (Reaction Biology)", "conditions": "10 μM ATP"}, "[2]": {"system": "Ba/F3 EML4-ALK wild type cell line", "assay": "Cell proliferation assay (CellTiter-Glo)", "format": "cell-based", "conditions": "Mus musculus, 72 hours"}, "EPHA1": {"target": "T7, EPHA1 (Homo sapiens, UniProt P21709)", "T7 construct": "purchased Reaction Biology Corporation (contract assay)", "T7 sequence (P21709 26-976)": "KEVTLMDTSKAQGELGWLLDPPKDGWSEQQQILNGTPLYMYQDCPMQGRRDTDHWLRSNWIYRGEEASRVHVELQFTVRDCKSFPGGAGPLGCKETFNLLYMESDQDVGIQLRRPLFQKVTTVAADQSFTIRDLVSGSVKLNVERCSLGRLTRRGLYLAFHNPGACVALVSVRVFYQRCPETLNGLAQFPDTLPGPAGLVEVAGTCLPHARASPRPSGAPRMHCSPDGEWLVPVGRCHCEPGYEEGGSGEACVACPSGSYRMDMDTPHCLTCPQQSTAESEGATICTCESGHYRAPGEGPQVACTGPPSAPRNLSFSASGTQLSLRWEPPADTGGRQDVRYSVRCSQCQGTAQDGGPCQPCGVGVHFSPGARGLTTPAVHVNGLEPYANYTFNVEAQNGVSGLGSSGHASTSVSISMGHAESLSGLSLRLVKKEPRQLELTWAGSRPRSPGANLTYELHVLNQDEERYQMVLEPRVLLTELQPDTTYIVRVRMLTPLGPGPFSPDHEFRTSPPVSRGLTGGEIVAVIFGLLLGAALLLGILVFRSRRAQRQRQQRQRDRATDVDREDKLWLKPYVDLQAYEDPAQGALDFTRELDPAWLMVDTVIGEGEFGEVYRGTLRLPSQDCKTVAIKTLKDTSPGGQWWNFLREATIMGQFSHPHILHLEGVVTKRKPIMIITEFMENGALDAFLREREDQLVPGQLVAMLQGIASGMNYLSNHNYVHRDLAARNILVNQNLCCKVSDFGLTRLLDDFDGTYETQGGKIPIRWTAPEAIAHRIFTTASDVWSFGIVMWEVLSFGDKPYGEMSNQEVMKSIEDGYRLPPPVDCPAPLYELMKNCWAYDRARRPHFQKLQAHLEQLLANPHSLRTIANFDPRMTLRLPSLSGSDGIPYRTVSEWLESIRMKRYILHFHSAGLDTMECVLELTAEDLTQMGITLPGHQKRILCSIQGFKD", "assay": "Biochemical kinase assay (Reaction Biology)", "conditions": "10 μM ATP"}, "[3]": {"system": "Ba/F3 CD74-ROS1 L2026M cell line", "assay": "Cell proliferation assay (CellTiter-Glo)", "format": "cell-based", "conditions": "Mus musculus, BaF3, 72 h, read-out: Cell proliferation of Ba/F3 CD74-ROS1 L2026M cell line IC50"}, "EPHA8": {"target": "T8, EPHA8 (Homo sapiens, UniProt P29322)", "T8 construct": "purchased Reaction Biology Corporation (contract assay)", "T8 sequence (P29322 28-1005)": "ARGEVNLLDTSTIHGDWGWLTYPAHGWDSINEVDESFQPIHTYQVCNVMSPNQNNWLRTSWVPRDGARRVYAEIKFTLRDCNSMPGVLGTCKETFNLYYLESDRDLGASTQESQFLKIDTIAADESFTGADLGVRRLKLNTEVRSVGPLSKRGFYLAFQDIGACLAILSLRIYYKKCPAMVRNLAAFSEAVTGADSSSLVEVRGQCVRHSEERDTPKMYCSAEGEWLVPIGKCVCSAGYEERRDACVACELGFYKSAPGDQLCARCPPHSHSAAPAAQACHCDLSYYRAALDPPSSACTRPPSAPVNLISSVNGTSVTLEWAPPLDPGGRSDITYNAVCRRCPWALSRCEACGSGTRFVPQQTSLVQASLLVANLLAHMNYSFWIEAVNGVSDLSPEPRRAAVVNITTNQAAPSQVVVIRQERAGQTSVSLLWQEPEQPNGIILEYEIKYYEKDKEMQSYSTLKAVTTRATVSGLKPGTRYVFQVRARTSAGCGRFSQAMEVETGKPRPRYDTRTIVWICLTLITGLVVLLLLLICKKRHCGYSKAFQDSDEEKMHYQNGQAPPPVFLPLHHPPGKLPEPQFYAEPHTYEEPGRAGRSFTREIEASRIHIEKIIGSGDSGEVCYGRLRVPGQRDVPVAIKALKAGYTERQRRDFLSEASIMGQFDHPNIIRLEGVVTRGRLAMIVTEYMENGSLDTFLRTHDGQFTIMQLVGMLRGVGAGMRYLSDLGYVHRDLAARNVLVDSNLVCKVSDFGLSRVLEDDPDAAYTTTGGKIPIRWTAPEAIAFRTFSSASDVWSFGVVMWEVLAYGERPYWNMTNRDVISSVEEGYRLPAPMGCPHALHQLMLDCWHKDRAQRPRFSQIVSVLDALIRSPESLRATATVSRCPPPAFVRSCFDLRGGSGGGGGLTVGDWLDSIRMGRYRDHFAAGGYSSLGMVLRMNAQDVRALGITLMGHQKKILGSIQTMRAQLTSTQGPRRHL", "assay": "Biochemical kinase assay (Reaction Biology)", "conditions": "10 μM ATP"}, "KM12 tumors": {"system": "KM12 tumors", "assay": "KM12 colorectal cancer subcutaneous xenograft model", "format": "in vivo, athymic nude mice", "conditions": "seven days"}, "FYN": {"target": "T9, FYN (Homo sapiens, UniProt P06241)", "T9 construct": "purchased Reaction Biology Corporation", "T9 sequence (P06241 whole entry)": "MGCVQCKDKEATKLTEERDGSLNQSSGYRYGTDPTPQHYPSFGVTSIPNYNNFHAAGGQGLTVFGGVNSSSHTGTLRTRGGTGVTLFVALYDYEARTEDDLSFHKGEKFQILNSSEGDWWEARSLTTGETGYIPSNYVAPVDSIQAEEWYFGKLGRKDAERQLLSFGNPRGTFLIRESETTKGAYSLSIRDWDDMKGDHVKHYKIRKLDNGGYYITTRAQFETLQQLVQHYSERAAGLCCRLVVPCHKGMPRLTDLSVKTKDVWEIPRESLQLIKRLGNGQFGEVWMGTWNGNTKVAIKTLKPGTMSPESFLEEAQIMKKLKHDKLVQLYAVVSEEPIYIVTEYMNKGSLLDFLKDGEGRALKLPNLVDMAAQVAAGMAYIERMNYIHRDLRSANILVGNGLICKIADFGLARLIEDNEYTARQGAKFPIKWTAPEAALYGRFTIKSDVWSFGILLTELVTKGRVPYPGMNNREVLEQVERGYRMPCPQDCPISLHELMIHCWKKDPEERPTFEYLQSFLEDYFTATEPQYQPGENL", "assay": "Biochemical kinase assay (Reaction Biology)", "conditions": "10 μM ATP"}, "Ba/F3 EML4-ALK WT tumors": {"system": "Ba/F3 EML4-ALK WT tumors", "assay": "Ba/F3 EML4-ALK WT subcutaneous xenograft model", "format": "in vivo, SCID/Beige mice", "conditions": "14 days"}, "[4]": {"conditions": "Example 13: 15 mg/kg BID orally"}, "[5]": {"conditions": "Example 13: 75 mg/kg BID orally"}}, "data": [{"molecule": "C[C@H]1CNC(=O)c2cnn3ccc(nc23)N[C@H](C)c2cc(F)ccc2O1", "note": "[Compound 1, (7S,13R)-11-fluoro-7,13-dimethyl-6,7,13,14-tetrahydro-1,15-ethenopyrazolo[4,3-f][1,4,8,10]benzoxatriazacyclotridecin-4(5H)-one]", "values": [{"measurement": "IC50", "setting": "YES", "result": 2.15, "unit": "nM"}, {"measurement": "IC50", "setting": "TXK", "result": 3.17, "unit": "nM"}, {"measurement": "IC50", "setting": "LTK", "result": 21.8, "unit": "nM"}, {"measurement": "IC50", "setting": "TNK2", "result": 24.1, "unit": "nM"}, {"measurement": "IC50", "setting": "NCI-H2228 cell line", "result": 73, "unit": "nM"}, {"measurement": "IC50", "setting": "PLK4", "result": 126, "unit": "nM"}, {"measurement": "mice exhibiting tumor regression", "setting": "[1]; 15 mg/kg BID orally", "result": "7 of 8"}, {"measurement": "tumor regression (REG)", "setting": "[1]; 15 mg/kg BID orally", "result": 39, "unit": "%"}, {"measurement": "mice exhibiting tumor regression", "setting": "[1]; 50 mg/kg BID orally", "result": "7 of 7"}, {"measurement": "tumor regression (REG)", "setting": "[1]; 50 mg/kg BID orally", "result": 69, "unit": "%"}, {"measurement": "IC50", "setting": "GRK7", "result": 35.2, "unit": "nM"}, {"measurement": "IC50", "setting": "[2]", "result": 17.8, "unit": "nM"}, {"measurement": "IC50", "setting": "EPHA1", "result": 25, "unit": "nM"}, {"measurement": "IC50", "setting": "[3]", "result": "[…]"}, {"measurement": "IC50", "setting": "EPHA8", "result": 50.2, "unit": "nM"}, {"measurement": "mice exhibiting tumor regression", "setting": "KM12 tumors; [4]", "result": "8 of 8"}, {"measurement": "tumor regression (REG)", "setting": "KM12 tumors; [4]", "result": 13, "unit": "%"}, {"measurement": "mice exhibiting tumor regression", "setting": "KM12 tumors; [5]", "result": "5 of 8"}, {"measurement": "tumor regression (REG)", "setting": "KM12 tumors; [5]", "result": 11, "unit": "%"}, {"measurement": "Tumor growth inhibition (TGI)", "setting": "KM12 tumors; Example 15: 1 mg/kg BID orally", "result": 77, "unit": "%"}, {"measurement": "mice exhibiting tumor regression", "setting": "KM12 tumors; Example 15: 3 mg/kg BID orally", "result": "2 of 10"}, {"measurement": "mice exhibiting tumor regression", "setting": "KM12 tumors; Example 15: 15 mg/kg BID orally", "result": "5 of 10"}, {"measurement": "tumor regression (REG)", "setting": "KM12 tumors; Example 15 dose dependent study: 15 mg/kg BID orally", "result": 1, "unit": "%"}, {"measurement": "IC50", "setting": "FYN", "result": 1.05, "unit": "nM"}, {"measurement": "Tumor growth inhibition (TGI)", "setting": "Ba/F3 EML4-ALK WT tumors; 15 mg/kg/BID orally", "result": 74, "unit": "%"}, {"measurement": "mice exhibiting tumor regression", "setting": "Ba/F3 EML4-ALK WT tumors; 75 mg/kg BID orally", "result": "6 of 8"}, {"measurement": "tumor regression (REG)", "setting": "Ba/F3 EML4-ALK WT tumors; 75 mg/kg BID orally", "result": 54, "unit": "%"}]}]}
